Data: PubChem BioAssay (NCI)
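Interpolation was linear, between the two tested concentrations surrounding the appropriate level; five concentrations were tested over 48 hours in 96-well plates. Here, GI50 denotes the concentration required for 50% inhibition of growth. TGI marks complete inhibition of growth.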

Columns and labels:
Assay in all cases: growth of human tumour cells (NCI), 48 h
KM12 colon = test system: KM12 colon
A549 NSCLC = test system: A549 NSCLC
SK-MEL-28 melanoma = test system: SK-MEL-28 melanoma
HT29 colon = test system: HT29 colon
UO-31 renal = test system: UO-31 renal
RPMI-8226 leukemia = test system: RPMI-8226 leukemia
NCI-H23 lung = test system: NCI-H23 lung
SK-MEL-2 melanoma = test system: SK-MEL-2 melanoma
CCRF-CEM leukemia = test system: CCRF-CEM leukemia
SR leukemia = test system: SR leukemia

Structure (SMILES)	TGI (KM12 colon) [µM]	TGI (A549 NSCLC) [µM]	TGI (SK-MEL-28 melanoma) [µM]	TGI (HT29 colon) [µM]	TGI (UO-31 renal) [µM]	TGI (RPMI-8226 leukemia) [µM]	TGI (NCI-H23 lung) [µM]	TGI (SK-MEL-2 melanoma) [µM]	TGI (CCRF-CEM leukemia) [µM]	TGI (SR leukemia) [nM]	GI50 (KM12 colon) [nM]	GI50 (A549 NSCLC) [µM]	GI50 (SK-MEL-28 melanoma) [nM]	GI50 (HT29 colon) [nM]	GI50 (UO-31 renal) [µM]	GI50 (RPMI-8226 leukemia) [µM]	GI50 (NCI-H23 lung) [nM]	GI50 (SK-MEL-2 melanoma) [nM]	GI50 (CCRF-CEM leukemia) [nM]	GI50 (SR leukemia) [nM]
Cc1ccc(S(=O)(=O)SC(C)(C)C)cc1	> 91.4	> 100	> 100	34.8	> 100	46.4	19.5	> 88.3	39.2	> 100000										
O=C(Nc1ccccc1)Nc1ccc2cc3ccc(NC(=O)Nc4ccccc4)cc3nc2c1	4.07	> 100	3.22	3.73	> 100	> 100	3.3	3.24	0.828	734	1470	11.2	1820	1890	> 100	5.42	1480	1720	276	287
